According to patent US4199501A, “Peptides related to somatostatin” (Eli Lilly and Company, priority 1978, dated 1980):

Legend:
serum glucagon = assay: Glucagon Inhibition In Dogs (L-alanine infusion, serum glucagon by radioimmunoassay); assay type: in vivo, dog
Method: (§1) B. Insulin and Glucagon Inhibition In Dogs:
(§2) A normal dog is fasted overnight. An intravenous (I.V.) infusion of the test compound (dissolved in saline) is begun. Thirty minutes thereafter an additional infusion of L-alanine (dissolved in saline) is begun and is continued for a total of 15 minutes so that a total dose of about 1 mmole of L-alanine per kg. body weight is given. Infusion of the test compound is continued for an additional 15 minute period.
(§3) Blood samples are taken periodically before (at -20, -10 and -1 minutes) and after (5, 10, 15, 30, 35, 40, 45, 50, 60, 90, 120 and 150 minutes) the start of the infusion of the test compound. The serum insulin and serum glucagon concentrations in the blood are determined by radioimmunoassay. A plot is made of the glucagon and insulin concentrations versus time. The plot obtained from the test compound is compared to plots obtained from somatostatin and saline (controls) in similar experiments.
(§4) Infusion of L-alanine (in the absence of somatostatin or active test compound) causes an abrupt increase in serum insulin and glucagon concentrations. The concentrations return to basal levels after the L-alanine infusion is terminated.

[1] = test system: growth hormone (GH) secretion; assay: Growth Hormone Inhibition In Rats (pentobarbital-stimulated GH secretion, serum GH by radioimmunoassay); assay type: in vivo; set-up: Serum Growth Hormone Conc. Mean ± SEM: unit not given here; settings: male rats; for % Inhibition of GH release (as compared to saline controls): 20 minutes; for Serum Growth Hormone Conc. Mean ± SEM: with sodium pentobarbital 4 mg/rat I.P., blood 20 minutes later
Method: A. Growth Hormone Inhibition In Rats:
This test is a modification of the method of P. Brazeau et al. Endocrinology, 94, 184 (1974). Male rats (weighing 100-110 g.) are divided into three groups of eight rats each. Each rat is administered sodium pentobarbital at a dose of 4 mg/rat (I.P.) to stimulate growth hormone (GH) secretion. Simultaneously, one group of rats receives the test compound (S.C.); the second group receives somatostatin (S.C.); and the third group (control) receives saline (S.C.). Twenty-minutes later, the animals are decapitated and blood samples are collected. The serum concentration of growth hormone (GH) is determined by radioimmunoassay. The mean GH concentration (± standard error of the mean) is calculated for each group. The percent inhibition of GH release (as compared to saline controls) is then calculated for the test compound and for somatostatin. When tested as above-described, the peptide of Example 4, (D-Ala^2, D-Ala^5, Cha^6, D-Trp^8, D-Val^10 -somatastatin) representative of the peptides of Formula III, gave the results set forth below in Table I: […]

serum insulin = assay: Insulin Inhibition In Dogs (L-alanine infusion, serum insulin by radioimmunoassay); assay type: in vivo, dog
Method: as §1, §2, §3, §4

[2] = dog, I.V. infusion alone (no L-alanine)
[3] = dog, I.V. infusion in the presence of L-alanine
[4] = normal fasted dog, I.V. infusion at doses of 0.195 and 0.230 μg/Kg/min, L-alanine infusion

| Compound | effect on basal serum concentration of glucagon (serum glucagon; [2]) | effect on increase in glucagon concentration induced by L-alanine (serum glucagon; [3]) | % Inhibition of GH release (as compared to saline controls) ([1]; dose 2 (mg/kg) S.C.) [%] | % Inhibition of GH release (as compared to saline controls) ([1]; dose 50 (mg/kg) S.C.) [%] | effect on basal serum concentration of insulin (serum insulin; [2]) | effect on increase in insulin concentration induced by L-alanine (serum insulin; [3]) | inhibition of glucagon concentration (serum glucagon; [4]) | Serum Growth Hormone Conc. Mean ± SEM ([1]; dose 2 (mg/kg) S.C.) | Serum Growth Hormone Conc. Mean ± SEM ([1]; dose 50 (mg/kg) S.C.) | inhibition of insulin concentration (serum insulin; [4]) |
| --- | --- | --- | --- | --- | --- | --- | --- | --- | --- | --- |
| C[C@H](N)C(=O)NCC(=O)N[C@H]1CSSC[C@@H](C(=O)O)NC(=O)[C@H](CO)NC(=O)[C@H]([C@@H](C)O)NC(=O)[C@H](Cc2ccccc2)NC(=O)[C@H]([C@@H](C)O)NC(=O)[C@H](CCCCN)NC(=O)[C@H](Cc2c[nH]c3ccccc23)NC(=O)[C@H](Cc2ccccc2)NC(=O)[C@H](Cc2ccccc2)NC(=O)[C@H](CC(N)=O)NC(=O)[C@H](CCCCN)NC1=O [Somatostatin] | causes a decrease | inhibits the increase | 22 | 64 | causes a decrease | inhibits the increase | – | – | – | – |
| L-Alanyl-D-alanyl-L-cysteinyl-L-lysyl-D-alanyl-L-cyclohexylalanyl-L-phenylalanyl-D-tryptophyl-L-lysyl-D-valyl-L-phenylalanyl-L-threonyl-L-seryl-L-cysteine cyclic (3->14) disulfide [Example 4] | – | – | 36 | 73 | – | – | no significant inhibition | 71.6 ± 29.5 | 29.8 ± 18.6 | no significant inhibition |
